The numbers were not newly measured in patent US20030064123A1, “DHEA supplement for increasing women's libido” (priority 2001, published 2003), which cites them from elsewhere.

Each structure is given as a SMILES string.

For series [1] the following is noted: post-menopausal women, oral DHEA 25 mg/day, after six months.
Series [2] relates to ventrobasal complex of the thalamus. The conditions noted are these: rat.
Series [3] relates to androgen-deficient female patients. The conditions noted are these: testosterone injections.

Regarding `C[C@]12CC[C@H](O)CC1=CC[C@@H]1[C@@H]2CC[C@]2(C)C(=O)CC[C@@H]12` [DHEA, Dihydroepiandosterone], in series [1], the estrogen levels entry was “returned to premenopausal levels” and the testosterone levels result is “returned to premenopausal levels”.

For `N=C(N)NCCC[C@H](N)C(=O)O` [L-arginine], the “excitatory amino acid responses and sonato sensory transmission” value in series [2] is recorded as “enhancement”.

Consider `C[C@]12CC[C@H]3[C@@H](CCC4=CC(=O)CC[C@@]43C)[C@@H]1CC[C@@H]2O` [testosterone], for which, in series [3], the “libido and ability to become aroused and achieve a satisfactory orgasm” value was “resolved”.
